What is called IC50 is the concentration at which inhibition is half-maximal.

Sequence of human P2X3 receptor (P56373 whole entry): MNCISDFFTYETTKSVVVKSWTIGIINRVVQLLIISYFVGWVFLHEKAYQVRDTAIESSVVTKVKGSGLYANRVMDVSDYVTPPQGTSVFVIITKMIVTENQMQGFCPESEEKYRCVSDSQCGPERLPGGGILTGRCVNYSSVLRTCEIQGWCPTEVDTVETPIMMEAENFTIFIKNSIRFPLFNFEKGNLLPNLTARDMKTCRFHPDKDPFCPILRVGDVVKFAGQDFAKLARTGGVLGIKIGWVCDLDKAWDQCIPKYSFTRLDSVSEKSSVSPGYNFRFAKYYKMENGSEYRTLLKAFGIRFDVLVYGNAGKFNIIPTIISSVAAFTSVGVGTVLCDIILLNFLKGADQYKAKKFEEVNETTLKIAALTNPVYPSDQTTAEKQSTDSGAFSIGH

The first experiment concerns the target human P2X3 receptor (Homo sapiens (Human), UniProt P56373). The experiment can be described thus: Evaluation of human P2X3 receptor inhibitory activity (Fluo-3 calcium fluorescence, FDSS 3000, ATP stimulation).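 Further: stimulus was 50 nM ATP with fluorescence followed for 3 min, and the response per well was peak post-ATP fluorescence divided by the reading at measurement start.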 The experiment is classed as cell-based. The note with it: C6BU-1 cells stably expressing human P2X3 receptor.
`CCn1c(=O)[nH]/c(=N\c2ccc(Oc3ccccc3C(=O)O)cc2)n(Cc2ccc(Cl)cc2)c1=O` [Compound I-1992]: the IC50 worked out at 240 nM.
Take `Cc1ccc(Cn2c(=O)n(CCC(=O)O)c(=O)[nH]/c2=N\c2ccc(OC(C)C)c(CO)c2)cc1` [Compound I-1429]: the IC50 was 232 nM.
For `COC(=O)c1cccc(Oc2ccc(/N=c3\[nH]c(=O)n(C)c(=O)n3Cc3ccc(Cl)cc3)cc2)c1` [Compound I-2059], the half-maximal inhibitory concentration (IC50) turned out to be 56 nM.
Turning to `NC(=O)Cn1c(=O)[nH]/c(=N\c2ccc(OCC3CC3)cc2)n(Cc2ccc(Cl)cc2)c1=O` [Compound I-1940], the concentration for half-maximal inhibition (IC50) worked out at 55 nM.
`CCOC(=O)CCn1c(=O)[nH]/c(=N\c2ccc(Oc3ccncc3)cc2)n(Cc2ccc(Cl)cc2)c1=O` [Compound I-1205]: the IC50 was determined as 2 nM.
On the same count and under the same terms, to `COc1cc(/N=c2\[nH]c(=O)n(CCC(=O)O)c(=O)n2Cc2ccc(C)cc2)ccc1OC(C)C` [Compound I-1264] belongs 31 nM; to `COC(=O)[C@@H](C)Cn1c(=O)[nH]/c(=N\c2ccc3nc(C)ccc3c2)n(Cc2ccc(Cl)cc2)c1=O` [Compound I-0790], 13 nM.
Same read-out and setting: as for `CC(C)Oc1ccc(/N=c2\[nH]c(=O)n(C3C[C@H]3C(=O)O)c(=O)n2Cc2ccc(Cl)cc2)cc1F` (stereo partly drawn) [Compound I-0674], the figure is 126 nM; as for `CCn1c(=O)[nH]/c(=N\c2ccc(Oc3ccsc3C(=O)O)cc2)n(Cc2ccc(Cl)cc2)c1=O` [Compound I-2041], 109 nM.
Regarding `COC(=O)[C@@H](C)Cn1c(=O)[nH]/c(=N\c2ccc(CC(C)C)c(Cl)c2)n(Cc2ccc(Cl)cc2)c1=O` [Compound I-1370], the IC50 stood at 19 nM.
On the same count and under the same terms, to `C[C@@H](C(=O)O)[C@H](C)n1c(=O)[nH]/c(=N\c2ccc(Oc3cccnc3)cc2)n(Cc2ccc(Cl)cc2)c1=O` [Compound I-1390] belongs 15 nM.
Consider `Cc1ccc(Cn2c(=O)n(CCC(=O)O)c(=O)[nH]/c2=N\c2ccc(OC3CCC3)cc2)cc1` [Compound I-1285], for which the concentration for half-maximal inhibition (IC50) turned out to be 51 nM.
With `COCc1cc(/N=c2\[nH]c(=O)n(CC(C)(C)C(=O)OC)c(=O)n2Cc2ccc(Cl)cc2)ccc1OC(C)C` [Compound I-1422], the IC50 stood at 529 nM.
As for `COC(=O)[C@@H](C)Cn1c(=O)[nH]/c(=N\c2ccc(OC(C)C)c(C)c2)n(Cc2ccccc2)c1=O` [Compound I-0764], the IC50 turned out to be 254 nM.
For the molecule `CC(C)COc1ccc(/N=c2\[nH]c(=O)n([C@@H](C)[C@@H](C)C(=O)O)c(=O)n2Cc2ccc(Cl)cc2)cc1` [Compound I-1386], the IC50 is 28 nM.
In the case of `O=c1[nH]/c(=N\c2ccc(Oc3cncc(CO)c3)cc2)n(Cc2ccc(Cl)cc2)c(=O)n1CCOC1CCCCO1` (stereo not drawn) [Compound I-2077], the half-maximal inhibitory concentration (IC50) amounted to 3 nM.
Consider `CCOC(=O)C1CCC(n2c(=O)[nH]/c(=N\c3ccc(OC(C)C)c(C)c3)n(Cc3ccc(Cl)cc3)c2=O)CC1` (stereo not drawn) [Compound I-0718], for which the half-maximal inhibitory concentration (IC50) was determined as 93 nM.
Consider `CCn1c(=O)[nH]/c(=N\c2ccc(Oc3ccc(-c4ncn[nH]4)cc3)cc2)n(Cc2ccc(Cl)cc2)c1=O` [Compound I-1973], for which the half-maximal inhibitory concentration (IC50) came out at 2 nM.
In the case of `CCn1c(=O)[nH]/c(=N\c2ccc(Oc3cccc(C(=O)O)n3)cc2)n(Cc2ccc(C)cc2)c1=O` [Compound I-2181], the IC50 came to 4 nM.
`Cc1cc(/N=c2\[nH]c(=O)n(Cc3cc(C(=O)O)no3)c(=O)n2Cc2ccc(Cl)cc2)ccc1OC(C)C` [Compound I-0802]: the half-maximal inhibitory concentration (IC50) came to 21 nM.
Turning to `Cc1ccc(Cn2c(=O)n(C[C@H](C)C(=O)O)c(=O)[nH]/c2=N\c2ccc(Cc3ccncc3)cc2)cc1` [Compound I-1262], the IC50 worked out at 163 nM.
As for `CCCc1ccc(/N=c2\[nH]c(=O)n(C[C@H](C)C(=O)OC)c(=O)n2Cc2ccc(Cl)cc2)cc1OC` [Compound I-1306], the IC50 came out at 80 nM.
The same measure, in the same setting: to `CCn1c(=O)[nH]/c(=N\c2ccc(Oc3ccc(C(=O)O)o3)cc2)n(Cc2ccc(Cl)cc2)c1=O` [Compound I-2152] belongs 41 nM.
Consider `COC(=O)[C@@H](C)Cn1c(=O)[nH]/c(=N\c2ccc(OC3CCCCC3)cc2)n(Cc2ccc(C)cc2)c1=O` [Compound I-1219], for which the 50% inhibitory concentration (IC50) is 29 nM.
On to `COc1cc(/N=c2\[nH]c(=O)n(C[C@H](C)C(=O)O)c(=O)n2Cc2ccc(Cl)cc2)ccc1CC(C)C` [Compound I-1270], for which the half-inhibitory concentration (IC50) was determined as 12 nM.
Turning to `CCCc1ccc(/N=c2\[nH]c(=O)n(C[C@H](C)C(=O)O)c(=O)n2Cc2ccc(C)cc2)cc1Cl` [Compound I-1267], the IC50 was found to be 9 nM.
In the case of `CCCc1ccc(/N=c2\[nH]c(=O)n(C[C@H](C)C(=O)O)c(=O)n2Cc2ccc(C)cc2)cc1OC` [Compound I-1365], the half-inhibitory concentration (IC50) worked out at 94 nM.

The experiment is the same for the next values; noted with them: C6BU-1 cells stably expressing human P2X3 receptor, Fluo-3 fluorescence, FDSS 3000.
`CCc1oc2ccc(/N=c3\[nH]c(=O)n(CC(C)(C)C(=O)O)c(=O)n3Cc3ccc(C)cc3)cc2c1C` [Compound I-1582]: the IC50 was determined as 7 nM.
For `CC[C@@H](C)Oc1ccc(/N=c2\[nH]c(=O)n(CCC(=O)O)c(=O)n2Cc2ccc(C)cc2)cc1` [Compound I-1028], the IC50 was 78 nM.
For `CCCOc1ccc(/N=c2\[nH]c(=O)n([C@@H](C)[C@@H](C)C(=O)OC)c(=O)n2Cc2ccc(C)cc2)cc1` [Compound I-0926], the IC50 worked out at 31 nM.
In the case of `Cc1ccc(Cn2c(=O)n(CCCCC(=O)O)c(=O)[nH]/c2=N\c2ccc(OC(C)C)c(Cl)c2)cc1` [Compound I-1878], the half-inhibitory concentration (IC50) was found to be 10 nM.
Take `COC(=O)[C@@H](C)Cn1c(=O)[nH]/c(=N\c2ccc(Oc3ccncc3)cc2)n(Cc2ccc(C)cc2)c1=O` [Compound I-1125]: the IC50 stood at 4 nM.
On the same count and under the same terms, as for `CNC(=O)Cn1c(=O)[nH]/c(=N\c2ccc3nc(C)sc3c2)n(Cc2ccc(Cl)cc2)c1=O` [Compound I-1660], the figure is 5 nM; as for `CC[C@@H](C)Oc1ccc(/N=c2\[nH]c(=O)n([C@H](C)CC(=O)OC)c(=O)n2Cc2ccc(C)cc2)cc1C` [Compound I-0938], 35 nM; as for `CCOC(=O)CCn1c(=O)[nH]/c(=N\c2ccc3nc(C4CC4)sc3c2)n(Cc2ccc(C)cc2)c1=O` [Compound I-1559], 5 nM.
Same read-out and setting: to `Cc1ccc(Cn2c(=O)n(CCC(=O)O)c(=O)[nH]/c2=N\c2ccc(OC(C)C)c(C)c2)cc1` [Compound I-1158] belongs 63 nM; to `CCC[C@H](C)Oc1ccc(/N=c2\[nH]c(=O)n(C[C@H](C)C(=O)O)c(=O)n2Cc2ccc(C)cc2)cc1` [Compound I-1060], 29 nM; to `CCn1c(=O)[nH]/c(=N\c2ccc(Oc3ccnc(C)c3)cc2)n(Cc2ccc(Cl)cc2)c1=O` [Compound I-1598], 5 nM.
On to `CCOC(=O)CCn1c(=O)[nH]/c(=N\c2ccc(OC[C@@H](C)CC)cc2)n(Cc2ccc(C)cc2)c1=O` [Compound I-1051], for which the IC50 was 100 nM.

Still in this experiment, the particulars now being: human P2X3 receptor, Test Example 1.
On to `CC(=O)N(C)CCCn1c(=O)[nH]/c(=N\c2ccc(OC(C)C)c(F)c2)n(Cc2ccc(Cl)cc2)c1=O` [Compound I-2317], for which the half-maximal inhibitory concentration (IC50) is 3 nM.
With `COC(=O)[C@@H](C)Cn1c(=O)[nH]/c(=N\c2ccc(Oc3ccccc3)nc2)n(Cc2ccc(C)cc2)c1=O` [Compound I-1515], the half-inhibitory concentration (IC50) was 157 nM.
Consider `CCC(=O)Nc1ccc(Oc2ccc(/N=c3\[nH]c(=O)n(CC)c(=O)n3Cc3ccc(Cl)cc3)cc2)cn1` [Compound I-2242], for which the IC50 was < 4 nM.
Regarding `Cc1cc(Oc2ccc(/N=c3\[nH]c(=O)n(C[C@@H](O)CO)c(=O)n3Cc3ccc(Cl)cc3)cc2)no1` [Compound I-2229], the IC50 came out at 23 nM.
Consider `O=c1[nH]/c(=N\c2ccc(Oc3ccsn3)cc2)n(Cc2ccc(Cl)cc2)c(=O)n1CCO` [Compound I-2563], for which the IC50 was 15 nM.
On to `CC(C)Cc1ccc(/N=c2\[nH]c(=O)n(C[C@H](C)C(=O)O)c(=O)n2Cc2ccc(Cl)cn2)cc1Cl` [Compound I-1540], for which the half-maximal inhibitory concentration (IC50) was 52 nM.
For `CCn1c(=O)[nH]/c(=N\c2ccc(Oc3ccc(NCC(=O)NC)nc3)cc2)n(Cc2ccc(Cl)cc2)c1=O` [Compound I-2626], the concentration for half-maximal inhibition (IC50) was 5 nM.
As to `COC(=O)[C@@H](C)Cn1c(=O)[nH]/c(=N\c2ccc(C(C)C)c(Cl)c2)n(Cc2ccc(C)cc2)c1=O` [Compound I-1493], the half-maximal inhibitory concentration (IC50) is 444 nM.
As to `Cc1nc2ccc(/N=c3\[nH]c(=O)n(CCC(=O)O)c(=O)n3Cc3ccc(Cl)cc3)cc2s1` [Compound I-1520], the 50% inhibitory concentration (IC50) was determined as 32 nM.
Same read-out and setting: as for `CCOC(=O)Cn1c(=O)[nH]/c(=N\c2ccc(Oc3ncc(C)s3)cc2)n(Cc2ccc(Cl)cc2)c1=O` [Compound I-2619], the figure is 6 nM.
`COC(=O)[C@@H](C)Cn1c(=O)[nH]/c(=N\c2ccc(OC3CC3)cc2)n(Cc2ccc(C)cc2)c1=O` [Compound I-1514]: the IC50 turned out to be 24 nM.
Take `COC(=O)c1ccc(Oc2ccc(/N=c3\[nH]c(=O)n(C)c(=O)n3Cc3ccc(Cl)cc3)cc2)cn1` [Compound I-2402]: the half-inhibitory concentration (IC50) was determined as 3 nM.
Take `Cc1cnc(Oc2ccc(/N=c3\[nH]c(=O)n(CC(N)=O)c(=O)n3Cc3ccc(Cl)cc3)cc2)s1` [Compound I-2647]: the half-maximal inhibitory concentration (IC50) was determined as 16 nM.
As to `CCn1c(=O)nc(Nc2ccc(Oc3ccc(C(=O)O)nn3)cc2)n(Cc2ccc(F)cc2)c1=O` [Compound I-2699], the IC50 worked out at 134 nM.
In the case of `Cn1c(=O)[nH]/c(=N\c2ccc(Oc3ccc(C#N)cn3)cc2)n(Cc2ccc(Cl)cc2)c1=O` [Compound I-2392], the half-inhibitory concentration (IC50) was determined as 11 nM.
In the case of `O=c1[nH]/c(=N\c2ccc(Oc3ccon3)c(F)c2)n(Cc2ccc(Cl)cc2)c(=O)n1CCO` [Compound I-2438], the half-maximal inhibitory concentration (IC50) came out at 7 nM.
`Cc1nc2ccc(/N=c3\[nH]c(=O)n(CC4COC(C)(C)OC4)c(=O)n3Cc3ccc(Cl)cc3)cc2s1` [Compound I-1542]: the IC50 came to 4 nM.
Regarding `CCOC(=O)CCn1c(=O)[nH]/c(=N\c2ccc(Oc3ccon3)cc2)n(Cc2ccc(Cl)cc2)c1=O` [Compound I-2434], the half-maximal inhibitory concentration (IC50) was determined as 4 nM.
As for `COC(=O)[C@@H](C)Cn1c(=O)[nH]/c(=N\c2ccc(OCC(F)F)cc2)n(Cc2ccc(C)cc2)c1=O` [Compound I-0847], the half-inhibitory concentration (IC50) is 31 nM.
On the same count and under the same terms, to `COC(=O)[C@H](C)n1c(=O)[nH]/c(=N\c2ccc(Oc3ccon3)cc2)n(Cc2ccc(Cl)cc2)c1=O` [Compound I-2459] belongs 7 nM; to `CCn1c(=O)[nH]/c(=N\c2ccc(Oc3ccc(C#N)cn3)cc2)n(Cc2ccc(Cl)cc2)c1=O` [Compound I-2306], 2 nM.

Source of the values: patent publication US9718790B2, “Triazine derivative and pharmaceutical composition having an analgesic activity comprising the same” (SHIONOGI & CO., LTD., priority 2010, dated 2017).
